Experimental data reported in the supplement of paper PMC10307832.

Compound: CN(C/C=C/C1=CC=C(C=C1)Cl)CC2=CC=CC=C2N(CCO)S(=O)(=O)C3=CC=C(C=C3)OC [KN-93] + CC(=O)c1c(C)c2cnc(Nc3ccc(N4CCNCC4)cn3)nc2n(C2CCCC2)c1=O [Palbociclib] (partner 0.5 µM)
Test: relative viability (nuclei count vs DMSO), 5 days (fraction); higher = more cells survive
In short: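 One day after seeding in 1536-well plates, lung cancer cell lines were dosed by pin tool. Dosing was either single-drug or a fixed anchor-drug dose plus five library-drug doses (not always all listed) in √10 steps. After 5 days, nuclei were stained in one fix-and-stain step and counted on 4× images, and relative viability is the nuclei count of treated wells over that of vehicle wells, given as the median of duplicate plates.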

Cell Line	relative viability (first compound 0.08 µM)	relative viability (first compound 0.253 µM)	relative viability (first compound 2.53 µM)	relative viability (first compound 8 µM)
EPLC-272H	0.321	0.279	0.354	0.346
RERF-LC-KJ	1.03	1	1.16	0.8
EKVX	0.433	0.34	0.365	0.265
LK-2	0.775	1.12	0.834	0.559
NCI-H322M	0.481	0.503	0.494	0.445
NCI-H1651	0.511	0.536	0.582	0.488
NCI-H1734	0.345	0.396	0.335	0.263
SK-MES-1	0.367	0.301	0.354	0.284
201T	0.359	0.376	0.367	0.306
ChaGo-K-1	0.899	1.02	0.946	0.829
HCC-366	0.407	0.531	0.563	0.221
NCI-H460	0.167	0.0991	0.147	0.205
NCI-H1355	0.427	0.342	0.436	0.332
EMC-BAC-2	0.564	0.53	0.537	0.46
A-427	0.555	0.533	0.511	0.41
LCLC-103H	0.472	0.458	0.49	0.518
NCI-H2342	0.538	0.54	0.565	0.507
NCI-H1793	0.38	0.311	0.318	0.253

Cell Line	relative viability (first compound 0.08 µM)	relative viability (first compound 0.253 µM)	relative viability (first compound 2.53 µM)	relative viability (first compound 8 µM)
LU99A	0.455	0.457	0.397	0.371
NCI-H358	0.14	0.136	0.138	0.131
NCI-H2085	0.484	0.427	0.456	0.387
NCI-H661	0.439	0.409	0.308	0.308
NCI-H2023	0.384	0.436	0.49	0.227
NCI-H1792	0.401	0.649	0.796	0.605
NCI-H647	0.346	0.364	0.349	0.473
HCC-15	0.671	0.82	0.735	0.513
HARA	0.29	0.261	0.229	0.195
NCI-H650	0.314	0.307	0.327	0.271
COR-L 105	0.456	0.412	0.391	0.333
ABC-1	0.691	0.64	0.571	0.336
NCI-H1993	0.628	0.563	0.595	0.498
NCI-H1650	0.377	0.323	0.391	0.269
LC-2-ad	0.491	0.517	0.529	0.452
H3255	0.322	0.303	0.3	0.266
COR-L23	0.272	0.289	0.303	0.24
